Experiments:
Leishmania donovani [1] = assay: Antileishmanial activity against axenic amastigote stage of Leishmania donovani MHOM/SD/1962/1S-Cl2d assessed as inhibition of parasite growth at 50 uM after 24 hrs by Alamar blue viability assay; type: functional; details: read-out: GI
Trypanosoma cruzi [2] = assay: Antiparasitic activity against amastigote stage of Trypanosoma cruzi Tulahuen C2C4 expressing LacZ gene infected in rat L6 cells after 96 hrs by photometric analysis; type: functional, organism-based; details: Tulahuen C2C4, L6, 96 h
L6 = assay: Cytotoxicity against rat L6 cells after 72 hrs by Alamar blue assay; type: cell-based; details: L6, 72 h
[3] = Cytotoxicity against human THP1 cells after 24 hrs by Alamar blue viability assay; type: cell-based; details: THP-1, 24 h
Leishmania donovani [4] = assay: Antileishmanial activity against axenic amastigote stage of Leishmania donovani MHOM/SD/1962/1S-Cl2d assessed as inhibition of parasite growth at 5 uM after 24 hrs by Alamar blue viability assay; type: functional; details: read-out: GI
[5] = Selectivity index, ratio of IC50 for rat L6 cells to IC50 for amastigote stage of Trypanosoma cruzi Tulahuen C2C4 expressing LacZ gene infected in rat L6 cells; type: toxicity, cell-based; details: read-out: Ratio IC50
[6] = Selectivity index, ratio of IC50 for human THP-1 cells to IC50 for Leishmania donovani MHOM/SD/1962/1S-Cl2d axenic amastigotes; type: toxicity, cell-based; details: read-out: Ratio IC50
Leishmania donovani [7] = assay: Antileishmanial activity against axenic amastigote stage of Leishmania donovani MHOM/SD/1962/1S-Cl2d assessed as inhibition of parasite growth at 15 uM after 24 hrs by Alamar blue viability assay; type: functional; details: read-out: GI
Leishmania donovani [8] = assay: Antileishmanial activity against axenic amastigote stage of Leishmania donovani MHOM/SD/1962/1S-Cl2d assessed as inhibition of parasite growth after 24 hrs by Alamar blue viability assay; type: functional, organism-based
Leishmania braziliensis = assay: Antileishmanial activity against promastigote stage of Leishmania braziliensis MHOM/BR/75/M2904 after 72 hrs by Neubauer haemocytometric analysis; type: functional; details: MHOM/BR/75/M2904, 72 h
Trypanosoma cruzi [9] = assay: Antiparasitic activity against epimastigote stage of Trypanosoma cruzi IRHOD/CO/2008/SN3 after 72 hrs by Neubauer haemocytometric analysis; type: functional, organism-based; details: IRHOD/CO/2008/SN3, 72 h
Leishmania infantum = assay: Antileishmanial activity against promastigote stage of Leishmania infantum MCAN/ES/2001/UCM-10 after 72 hrs by Neubauer haemocytometric analysis; type: functional, organism-based; details: MCAN/ES/2001/UCM-10, 72 h
Leishmania donovani [10] = assay: Antileishmanial activity against Leishmania donovani promastigotes infected in human THP1 cells assessed as inhibition of amastigote growth by luciferase assay; type: functional, organism-based; details: THP-1
Leishmania donovani [11] = assay: Antileishmanial activity against axenic amastigote stage of Leishmania donovani MHOM/SD/1962/1S-Cl2d assessed as inhibition of parasite growth at 1 uM after 24 hrs by Alamar blue viability assay; type: functional; details: read-out: GI
Trypanosoma cruzi [12] = assay: Potency index of ratio of Benznidazole IC50 to compound IC50 for antiparasitic activity against amastigote stage of Trypanosoma cruzi Tulahuen C2C4; type: functional

Compound	inhibition of growth at 50 µM (Leishmania donovani [1])	IC50 (Trypanosoma cruzi [2])	IC50 (L6)	selectivity ratio [5]	inhibition of growth at 15 µM (Leishmania donovani [7])	also measured
CC[C@H](NC(=O)[C@]1(C)CCC[C@]2(C)c3ccc(C(C)C)cc3CC[C@@H]12)C(=O)OC	57.6%					
COC(=O)[C@H](CC1CCCCC1)NC(=O)[C@]1(C)CCC[C@]2(C)c3ccc(C(C)C)cc3/C(=N\O)C[C@@H]12	90.8%	5.8 µM	13.5 µM	2	85.8%	IC50 [3]: 37.2 µM; inhibition of growth at 5 µM (Leishmania donovani [4]): 52.9%; selectivity ratio [6]: 7; IC50 (Leishmania donovani [8]): 5.6 µM
CC(C)c1ccc2c(c1)CC[C@H]1[C@](C)(C(=O)N[C@H](Cc3c[nH]c4ccccc34)C(=O)O)CCC[C@]21C	98.3%				53.9%	
COC(=O)[C@]1(C)CCC[C@]2(C)C3=C(CC[C@@H]12)C(=O)C(C(C)C)=CC3=O						IC50 (Leishmania braziliensis): 14.2 µM; IC50 (Trypanosoma cruzi [9]): 14.2 µM; IC50 (Leishmania infantum): 14.2 µM
COC(=O)[C@@H](Cc1ccc(O)cc1)NC(=O)[C@]1(C)CCC[C@]2(C)c3ccc(C(C)C)cc3CC[C@@H]12	98.9%				94.7%	IC50 [3]: 21.7 µM; inhibition of growth at 5 µM (Leishmania donovani [4]): 38.8%; selectivity ratio [6]: 2; IC50 (Leishmania donovani [8]): 11.1 µM
CC[C@H](NC(=O)[C@]1(C)CCC[C@]2(C)c3ccc(C(C)C)cc3CC[C@@H]12)C(=O)O	85%				5.9%	
CC(C)c1ccc2c(c1)CC[C@H]1[C@](C)(C(=O)N[C@H](C(=O)O)C(C)C)CCC[C@]21C	90.6%				10.9%	
COC(=O)CNC(=O)[C@]1(C)CCC[C@]2(C)c3ccc(C(C)C)cc3CC[C@@H]12	28.7%					
CC(C)c1ccc2c(c1)CC[C@H]1[C@](C)(C(=O)N[C@@H](CC3CCCCC3)C(=O)O)CCC[C@]21C	98.1%	22.8 µM	29.1 µM	1	92.2%	IC50 [3]: 40.5 µM; inhibition of growth at 5 µM (Leishmania donovani [4]): 63.6%; selectivity ratio [6]: 24; IC50 (Leishmania donovani [10]): 5 µM; IC50 (Leishmania donovani [8]): 1.7 µM
CC(C)c1ccc2c(c1)CC[C@H]1[C@](C)(C(=O)N[C@H](Cc3ccccc3)C(=O)O)CCC[C@]21C	98.3%	27.7 µM	60.6 µM	2	96.8%	IC50 [3]: 41.4 µM; inhibition of growth at 5 µM (Leishmania donovani [4]): 54.1%; selectivity ratio [6]: 8; IC50 (Leishmania donovani [8]): 5.2 µM
C[C@@H]1[C@H](O)[C@@H](C)/C=C/C=C/C=C/C=C/C=C/C=C/C=C/[C@H](O[C@@H]2O[C@H](C)[C@@H](O)[C@H](N)[C@@H]2O)C[C@@H]2O[C@](O)(C[C@@H](O)C[C@@H](O)[C@H](O)CC[C@@H](O)C[C@@H](O)CC(=O)O[C@H]1C)C[C@H](O)[C@H]2C(=O)O [AMPHOTERICIN B]						inhibition of growth at 1 µM (Leishmania donovani [11]): > 90%
CC(C)c1ccc2c(c1)CC[C@H]1[C@](C)(C(=O)NCC(=O)O)CCC[C@]21C	69.3%					
COC(=O)[C@@H](CCSC)NC(=O)[C@]1(C)CCC[C@]2(C)c3ccc(C(C)C)cc3CC[C@@H]12	88.7%				50.8%	
CSCC[C@@H](NC(=O)[C@]1(C)CCC[C@]2(C)c3ccc(C(C)C)cc3CC[C@@H]12)C(=O)O	98%				47%	
COC(=O)[C@@H](Cc1ccc[n+]([O-])c1)NC(=O)[C@]1(C)CCC[C@]2(C)c3ccc(C(C)C)cc3CC[C@@H]12	27.1%	32.7 µM	85.9 µM	3		
CC(C)c1ccc2c(c1)CC[C@H]1[C@](C)(C(=O)O)CCC[C@]21C [DEHYDROABIETIC ACID]	91.1%	101 µM	151 µM	1	59.2%	
CC(C)c1ccc2c(c1)CC[C@H]1[C@](C)(C(N)=O)CCC[C@]21C	55.2%					

Compound	inhibition of growth at 50 µM (Leishmania donovani [1])	IC50 (Trypanosoma cruzi [2])	IC50 (L6)	selectivity ratio [5]	inhibition of growth at 15 µM (Leishmania donovani [7])	also measured
COC(=O)[C@H](CC1CCCCC1)NC(=O)[C@]1(C)CCC[C@]2(C)c3ccc(C(C)C)cc3CC[C@@H]12	43.2%					
CC(C)c1ccc2c(c1)CC[C@H]1[C@](C)(C(=O)N[C@H](Cc3ccc[n+]([O-])c3)C(=O)O)CCC[C@]21C	1.9%					
CC(C)c1ccc2c(c1)C(=O)C[C@H]1[C@](C)(C(=O)N[C@@H](CC3CCCCC3)C(=O)O)CCC[C@]21C	99.1%	3.9 µM	77.2 µM	20	98.6%	IC50 [3]: 52 µM; inhibition of growth at 5 µM (Leishmania donovani [4]): 82.8%; selectivity ratio [6]: 13; IC50 (Leishmania donovani [10]): 2.3 µM; IC50 (Leishmania donovani [8]): 4 µM
COC(=O)[C@@H](Cc1ccccc1)NC(=O)[C@]1(C)CCC[C@]2(C)c3ccc(C(C)C)cc3CC[C@@H]12	77.5%				51.5%	
COC(=O)[C@@H](Cc1cccnc1)NC(=O)[C@]1(C)CCC[C@]2(C)c3ccc(C(C)C)cc3CC[C@@H]12	98.6%	1.4 µM	24.1 µM	17	16.5%	Ratio IC50 (Trypanosoma cruzi [12]): 1.5
CC(C)c1ccc2c(c1)CC[C@H]1[C@](C)(C(=O)N[C@H](Cc3cccnc3)C(=O)O)CCC[C@]21C	9.8%	83.1 µM	174 µM	2		
COC(=O)[C@@H](Cc1c[nH]c2ccccc12)NC(=O)[C@]1(C)CCC[C@]2(C)c3ccc(C(C)C)cc3CC[C@@H]12	46.9%					
COC(=O)[C@@H](NC(=O)[C@]1(C)CCC[C@]2(C)c3ccc(C(C)C)cc3CC[C@@H]12)C(C)C	57.1%					
CC(C)c1ccc2c(c1)/C(=N\O)C[C@H]1[C@](C)(C(=O)N[C@@H](CC3CCCCC3)C(=O)O)CCC[C@]21C	97.7%				52.3%	
CC(C)c1ccc2c(c1)CC[C@H]1[C@](C)(C(=O)N[C@H](Cc3ccc(O)cc3)C(=O)O)CCC[C@]21C	96.1%				9.8%	
COC(=O)[C@H](CC1CCCCC1)NC(=O)[C@]1(C)CCC[C@]2(C)c3ccc(C(C)C)cc3C(=O)C[C@@H]12	90.2%	4.2 µM	33.5 µM	8	76.3%	IC50 [3]: 62.1 µM; inhibition of growth at 5 µM (Leishmania donovani [4]): 33.3%; selectivity ratio [6]: 14; IC50 (Leishmania donovani [10]): 6.6 µM; IC50 (Leishmania donovani [8]): 4.6 µM
CC(C)C[C@H](NC(=O)[C@]1(C)CCC[C@]2(C)c3ccc(C(C)C)cc3CC[C@@H]12)C(=O)O	91.2%				34.8%	
CC(C)c1ccc2c(c1)CC[C@H]1[C@](C)(C(=O)N[C@@H](Cc3ccccc3)C(=O)O)CCC[C@]21C	98.1%	33.1 µM	45.4 µM	1	77.6%	IC50 [3]: 82.2 µM; inhibition of growth at 5 µM (Leishmania donovani [4]): 53.1%; selectivity ratio [6]: 33; IC50 (Leishmania donovani [10]): 9 µM; IC50 (Leishmania donovani [8]): 2.5 µM
COC(=O)CNC(=O)[C@]1(C)CCC[C@]2(C)c3ccc(C(C)C)cc3C(=O)C[C@@H]12	37.1%					
COC(=O)[C@H](CC(C)C)NC(=O)[C@]1(C)CCC[C@]2(C)c3ccc(C(C)C)cc3CC[C@@H]12	64.9%					
COC(=O)[C@H](Cc1ccccc1)NC(=O)[C@]1(C)CCC[C@]2(C)c3ccc(C(C)C)cc3CC[C@@H]12	68.6%					
